{"source": "patent US8222487B2", "about": "“Application of ERF genes from Bupleurum kaoi” (National Tsing Hua University, priority 2009, dated 2012)", "key": {"[1]": {"tested_on": "cell suspension cultures of Medicago truncatula", "conditions": "5 μM MeJA for 2 h; cited from earlier work"}, "[2]": {"tested_on": "B. kaoi adventitious roots", "assay": "qRT-PCR of MeJA-induced gene transcripts in adventitious roots", "format": "cell-based, Bupleurum kaoi", "conditions": "500 μM MeJA", "description": "Adventitious root cultures were induced from the roots of germ-free seedlings of B. kaoi and were subcultured every 6 weeks by adding 0.2 g roots to a 125 ml flask containing 50 ml of B5 liquid medium supplemented with 2 mg 1^−1 NAA. Cultures were shaken using a rotary shaker at 100 rpm at 25° C. in the dark. To quantify the effect of MeJA on saikosaponin level, adventitious roots were treated with 500 and 1000 μM MeJA 2 weeks after subculture. Total saikosaponin was measured 2 weeks after MeJA treatment. To monitor expression of MeJA-responsive genes, the nutrient medium was refreshed 4 weeks after subculture and MeJA (500 μM) was applied 2 weeks after refreshment. Roots were harvested at 13 time points (5 min; 1, 2, 8, 24 hours; 2, 4, 6, 8 days; 2, 3, 4, 5 weeks) after the addition of the MeJA.\nTotal cellular RNA was extracted as described by Chang et al. (Chang et al., Plant Mol. Biol. (1993) 693-699) with some modifications. Three to five grams of tissue was frozen in liquid nitrogen and ground to a fine powder with mortar and pestle. The powder was added to 15 ml of prewarmed (65° C.) extraction buffer (2%, v/v hexadecyltrimethylammonium bromide (CTAB), 2%, v/v polyvinylpyrrolidinone K 30 (PVP), 100 mM Tris-HCl, pH 8.0, 25 mM EDTA, 2 M NaCl, 0.5 mg ml^−1 spermidine, 2% β-mercaptoethanol), and mixed completely by vigorous shaking. The mixture was extracted twice with an equal volume of chloroform:isoamyl alcohol (24:1). The RNA was precipitated by adding ¼ volume of cold 10 M LiCl to the aqueous phase and held for 12 to 18 h at −20° C. After centrifugation at 19,800×g at 4° C., the RNA was dissolved in 500 μl sterile DEPC H2O. The resuspended RNA was reextracted with chloroform:isoamyl alcohol (24:1). Three volumes of 100% ethanol and 1/10 volume of 3 M sodium acetate (pH 5.2) were added to the aqueous phase, and the solution was precipitated with liquid nitrogen for 15 min The RNA was spun down at 19,800×g for 30 min at 4° C. and washed with 80% ethanol. The dried pellet was resuspended in sterile DEPC H2O.\nEach RNA sample of 10 μg in 9 μl sterile DEPC H2O and 1 μl oligo-d(T)18 primer (100 μM) was denatured at 90° C. for 5 min and chilled on ice for 10 min Then 4μ5× reaction buffer (250 mM Tris-HCl, pH 8.0, 375 mM KCl, 15 mM MgCl2), 2 μl 10 mM dNTP, 2 μl 100 mM dithiothreitol (DTT), and 0.5 μl RNasin ribonuclease inhibitor (40 U μl^−1, Promega) were added and incubated at 37° C. for 10 min. After the addition of 1.5 μl Moloney murine leukemia virus (MMLV) reverse transcriptase (200 U μl^−1, Gibco BRL), the reaction was carried out at 37° C. for 90 min, 95° C. for 5 min, then chilled on ice. qRT-PCR reactions were performed with a SYBR Green PCR Master Mix (Applied Biosystems) in a 7500 Real-Time PCR System (Applied Biosystems) using primers designed with Primer Express 2.0 Software (Applied Biosystems). Each reaction was performed in triplicate, and contained 4 μl of a 1:1000 dilution of synthesized cDNA, primers to a final concentration of 100 nM each, 5 μl of the SYBR Green PCR Master mix and sterile deionized H2O to a total volume of 10 μl. PCR reactions were carried out at 50° C. for 2 min, 95° C. for 10 min, 40 cycles of 95° C. for 15 s and 60° C. for 1 min. The specificity of the amplified products was evaluated by analysis of the dissociation curves generated by the equipment. Non-template controls were prepared to confirm absence of contamination. The ratio between the relative amounts of the target gene and the endogenous control gene, in the qRT-PCR reactions, was determined based on the 2^−ΔΔCt method. The target gene expression level was plotted as log10 RQ (RQ=2^−ΔΔCt)."}, "[3]": {"tested_on": "B. kaoi adventitious roots", "assay": "Measurement of H2O2 in adventitious roots", "format": "cell-based, Bupleurum kaoi", "conditions": "500 μM MeJA; during 5 weeks culture", "description": "To test whether MeJA caused oxidative stress, the H2O2 level was measured as described below. H2O2 was extracted by homogenizing 0.3 to 0.5 g of adventitious roots with 3 ml phosphate buffer (50 mM, pH6.8) and centrifuged at 6000×g for 25 min. A 2 ml extract was mixed with 1 ml 0.1% titanium sulfate in 20% H2SO4 (v/v), and centrifuged at 6000×g for 15 min. The optical density of the supernatant was measured at 410 nm using an equal volume of phosphate buffer as a blank. […] The MDA level was colorimetrically measured as described below. MDA was extracted by homogenizing 0.3 to 0.5 g adventitious roots with 2 ml 5% trichloroacetic acid, and centrifuged at 10,000×g for 5 min at 20° C. A mixture of 1 ml supernatant with 4 ml 0.5% thiobarbituric acid in 20% trichloroacetic acid was heated in a 95° C. water bath for 30 min and centrifuged for 10 min at 2000×g to remove haziness. Optical density of the supernatant was measured at 532 nm and 600 nm using 1 ml 5% trichloroacetic acid to replace supernatant as a blank."}}}
{"smiles": "CC/C=C\\CC1C(=O)CCC1CC(=O)OC", "note": "(stereo not drawn) [MeJA, Methyl jasmonate]", "values": [{"measurement": "PAL transcripts induction", "setting": "[1]", "value": 3, "unit": "fold"}, {"measurement": "Peroxidase AM409285 transcripts increase", "setting": "[2]; 2 weeks", "value": 37, "unit": "fold"}, {"measurement": "BkGST1 (AM409308) transcripts increase", "setting": "[2]; 5 min", "value": 3, "unit": "fold"}, {"measurement": "BkGST2 (AM409289) transcripts activation", "setting": "[2]; 5 min", "value": 6, "unit": "fold"}, {"measurement": "B. kaoi PAL (AM409299) transcripts increase", "setting": "[2]; 1 h", "value": 3, "unit": "fold"}, {"measurement": "BkERF1.2 (AM409280) transcripts increase", "setting": "[2]; 1 h", "value": 133, "unit": "fold"}, {"measurement": "Peroxidase AM409296 transcripts increase", "setting": "[2]; 1 h", "value": 7, "unit": "fold"}, {"measurement": "Phospholipase D alpha 1 (AM409303) transcripts induction", "setting": "[2]; 1 h", "value": 6, "unit": "fold"}, {"measurement": "Trypsin protease inhibitor AM409305 transcripts increase", "setting": "[2]; 1 h", "value": 4, "unit": "fold"}, {"measurement": "ACO gene (AM409282) induction", "setting": "[2]; 2 h", "value": 5, "unit": "fold"}, {"measurement": "BkAOC (AM409312) mRNA level induction", "setting": "[2]; 2 h", "value": 9, "unit": "fold"}, {"measurement": "BkERF1.1 (AM409278) transcripts increase", "setting": "[2]; 2 h", "value": 41, "unit": "fold"}, {"measurement": "IAA-amino acid hydrolase (AM409294) transcripts increase", "setting": "[2]; 2 h", "value": 50, "unit": "fold"}, {"measurement": "PIN (AM409287) transcripts increase", "setting": "[2]; 2 h", "value": 166, "unit": "fold"}, {"measurement": "Prephenate dehydratase (AM409309) transcripts induction", "setting": "[2]; 2 h", "value": 7, "unit": "fold"}, {"measurement": "Trypsin protease inhibitor AM409295 transcripts increase", "setting": "[2]; 2 h", "value": 5, "unit": "fold"}, {"measurement": "BkGST2 (AM409289) transcripts increase", "setting": "[2]; 8 h", "value": 161, "unit": "fold"}, {"measurement": "Peroxidase AM409285 transcripts increase", "setting": "[2]; 8 h", "value": 5, "unit": "fold"}, {"measurement": "Protease inhibitor (AM409279) transcripts increase", "setting": "[2]; 8 h", "value": 4, "unit": "fold"}, {"measurement": "Pyruvate kinase gene (AM409311) induction", "setting": "[2]; 8 h", "value": 3, "unit": "fold"}, {"measurement": "UDP-glucosyltransferase gene (AM409293) induction", "setting": "[2]; 8 h", "value": 98, "unit": "fold"}, {"measurement": "Serine protease inhibitor (AM409301) mRNA level increase", "setting": "[2]; 24 h", "value": 3, "unit": "fold"}, {"measurement": "Trypsin protease inhibitor AM409295 transcripts increase", "setting": "[2]; 2 days", "value": 2051, "unit": "fold"}, {"measurement": "IAA-amido synthase gene (AM409281) induction", "setting": "[2]; 4 days", "value": 5, "unit": "fold"}, {"measurement": "IAA-amino acid hydrolase (AM409294) transcripts increase", "setting": "[2]; 4 days", "value": 139, "unit": "fold"}, {"measurement": "Pyruvate kinase gene (AM409311) induction", "setting": "[2]; 4 days", "value": 9, "unit": "fold"}, {"measurement": "B. kaoi PAL (AM409299) transcripts increase", "setting": "[2]; 6 days", "value": 23, "unit": "fold"}, {"measurement": "Basic endochitinase gene (AM409300) induction", "setting": "[2]; 6 days", "value": 726, "unit": "fold"}, {"measurement": "BkSDR (AM409290) transcripts increase", "setting": "[2]; 6 days", "value": 4, "unit": "fold"}, {"measurement": "Glycosyl hydrolase family 18 protein gene (AM409313) induction", "setting": "[2]; 6 days", "value": 61, "unit": "fold"}, {"measurement": "LOX (AM409291) transcript induction", "setting": "[2]; 6 days", "value": 4404, "unit": "fold"}, {"measurement": "PIN (AM409287) transcripts increase", "setting": "[2]; 6 days", "value": 178, "unit": "fold"}, {"measurement": "Peroxidase AM409296 transcripts increase", "setting": "[2]; 6 days", "value": 114, "unit": "fold"}, {"measurement": "Phospholipase D alpha 1 (AM409303) transcripts induction", "setting": "[2]; 6 days", "value": 44, "unit": "fold"}, {"measurement": "Prephenate dehydratase (AM409309) transcripts induction", "setting": "[2]; 6 days", "value": 27, "unit": "fold"}, {"measurement": "Trypsin protease inhibitor AM409305 transcripts increase", "setting": "[2]; 6 days", "value": 2944, "unit": "fold"}, {"measurement": "Zinc finger C2H2 type gene (AM409288) transcripts induction", "setting": "[2]; 6 days", "value": 118, "unit": "fold"}, {"measurement": "ACO gene (AM409282) induction", "setting": "[2]; 8 days", "value": 19, "unit": "fold"}, {"measurement": "BkGST1 (AM409308) transcripts increase", "setting": "[2]; 8 days", "value": 17, "unit": "fold"}, {"measurement": "IAA-amido synthase gene (AM409281) induction", "setting": "[2]; 8 days", "value": 10, "unit": "fold"}, {"measurement": "MYB gene (AM409302) transcripts increase", "setting": "[2]; 8 days", "value": 53, "unit": "fold"}, {"measurement": "OPR2 (AM409310) expression level induction", "setting": "[2]; 8 days", "value": 19, "unit": "fold"}, {"measurement": "Protease inhibitor (AM409279) transcripts increase", "setting": "[2]; 8 days", "value": 90, "unit": "fold"}, {"measurement": "Serine protease inhibitor (AM409301) mRNA level increase", "setting": "[2]; 8 days", "value": 81, "unit": "fold"}, {"measurement": "Plant defensin (AM409284) transcripts increase", "setting": "[2]; after 2 weeks", "value": 5, "unit": "fold"}, {"measurement": "Enoyl-CoA hydratase gene (AM409286) induction", "setting": "[2]; primarily in 4-8 days", "value": 6, "unit": "fold"}, {"measurement": "β-amyrin synthase gene (β-AS, AM421813) transcript level increase", "setting": "[2]; time not stated", "value": 2, "unit": "fold"}, {"measurement": "H2O2 levels in the adventitious roots", "setting": "[3]", "value": "did not significantly change"}]}
